Assay in all cases: inhibition of tumour cell growth, NCI panel, 48 h
In test [1] the test system is TK-10.
Test [2] concerns HOP-92.
Test [3] relates to M14.
For test [4], the system named is SK-MEL-28.
Test [5] relates to PC-3.
The test system of test [6] is Hs-578T.
The subject of test [7] is A498.
Test [8] deals with OVCAR-8.
Test [9] deals with SF-539.
Test [10] deals with Malme-3M.
Test [11] has as its system MDA-N.
Test [12] concerns NCI-H226.
Test [13] concerns K562.
The test system of test [14] is RXF 393.
The test system of test [15] is U-251.
In test [16] the test system is RPMI-8226.
The test system of test [17] is NCI-H460.
Test [18] concerns SNB-19.
In test [19] the test system is OVCAR-5.
In test [20] the test system is SK-OV-3.

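All cell lines were grown in 96-well plates and treated with compound for 48 hours. GI50 marks 50% less growth.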 Activity calls are given as the source filed them. Cut-off read from the data, not from the text of the source: active = GI50 up to about 1.1 µM and inactive = higher. Residues, ends and D or L forms follow the SMILES beside them. *: point of attachment. Boc = CC(C)(C)OC(=O)*; OBn = c1ccc(CO*)cc1

For the compound `CC[C@]12C=CCN3CCC4(c5cc(/N=N/c6ccccc6)c(OC)cc5N(C)[C@H]4[C@@](O)(C(=O)OC)[C@@H]1OC(C)=O)[C@@H]32` (stereo partly specified), the GI50 in test [1] is 17.6 µM (inactive); in test [2] it was 15.4 µM (inactive); in test [3], 20.6 µM (inactive); in [4], 20.3 µM (inactive); in test [5] it was 14.7 µM (inactive); in test [6] it was 17.8 µM (inactive). Further, the GI50 in test [7] is 16.6 µM (inactive); in test [8], 19.5 µM (inactive); in [9], 21 µM (inactive); in [10], 17.8 µM (inactive); in test [11], 18.4 µM (inactive); in [12], 24 µM (inactive). Besides, the GI50 in [13] is 18.8 µM (inactive); in test [14], 15.2 µM (inactive); in [15], 15.9 µM (inactive); in test [16], 19.2 µM (inactive); in test [17] it was 16 µM (inactive); in test [18], 20.5 µM (inactive). In test [19], the GI50 is 17 µM (inactive).
On to `CC1=NN(c2cccc(Cl)c2)C2(SCC(=O)N2c2nc3ccccc3s2)/C1=C\c1ccc(N(C)C)cc1` (stereo unspecified), for which the GI50 in [20] was 17.5 µM (inactive); in test [1] it was 33 µM (inactive); in test [2], 23.7 µM (inactive); in test [3], > 100 µM (inactive); in test [4] it was > 100 µM (inactive); in test [5], > 100 µM (inactive). Moreover, the GI50 in test [6] is 21 µM (inactive); in test [7] it was 27.9 µM (inactive); in test [8] it was 58.9 µM (inactive); in test [9], 52.2 µM (inactive); in [11], > 100 µM (inactive); in test [12], 76 µM (inactive). Moreover, the GI50 in test [13] is 43.8 µM (inactive); in test [14] it was 21.8 µM (inactive); in test [15], 35.7 µM (inactive); in test [16], 44.2 µM (inactive); in test [17], 20.9 µM (inactive); in test [19], > 100 µM (inactive).
As to `NNC(=O)CCC(NS(=O)(=O)c1ccc(Cl)cc1)C(=O)NN` (stereo unspecified), the GI50 in test [20], in test [1], in test [2], in test [3], in [4] and in test [5] was > 100 µM (inactive) each time. The GI50 in test [6], in test [7], in [8], in test [9], in [10] and in test [11] was > 100 µM (inactive) throughout. Also, the GI50 in test [12], in test [13], in test [14], in test [15], in [17] and in test [18] was > 100 µM (inactive) in each case. Besides, the GI50 in [19] was > 100 µM (inactive).
As to `COc1ccc(Nc2nnc(-c3nsc4ccccc34)s2)cc1`, the GI50 in test [20] was 2.52 µM (inactive); in test [1], > 49.3 µM (inactive); in [2] it was 9.73 µM (inactive); in test [3], > 100 µM (inactive); in test [4], > 100 µM (inactive); in test [5] it was > 100 µM (inactive). For the same compound, the GI50 in test [6] is 21.9 µM (inactive); in [7], 3.78 µM (inactive); in test [8], 49.8 µM (inactive); in test [9], 31.8 µM (inactive); in test [11], 76 µM (inactive); in test [12], 9.46 µM (inactive). In addition, the GI50 is 47.2 µM (inactive) in [13]; 26.2 µM (inactive) in test [14]; > 47.1 µM (inactive) in [15]; 22.9 µM (inactive) in [16]; 15 µM (inactive) in test [17]; > 53.1 µM (inactive) in test [18]. Moreover, the GI50 in test [19] is > 100 µM (inactive).
Regarding `Cc1ccc2nc(N/N=C/c3sccc3C)cc(C)c2c1`, the GI50 was 21.1 µM (inactive) in test [20]; 29.1 µM (inactive) in test [1]; 35 µM (inactive) in [2]; > 100 µM (inactive) in test [3]; > 100 µM (inactive) in test [4]; 35 µM (inactive) in [5]. The GI50 was 83.2 µM (inactive) in test [6]; > 100 µM (inactive) in test [7]; > 100 µM (inactive) in test [8]; > 100 µM (inactive) in [11]; > 100 µM (inactive) in [12]; > 100 µM (inactive) in [13]. The GI50 was 61.8 µM (inactive) in [14], 92.7 µM (inactive) in [15], 48.2 µM (inactive) in test [18] and > 100 µM (inactive) in [19].
As to `CC(C)N(C(=O)C12C3(C(=O)C(C)(C)C)C4C5(C#N)C3C1(C(=O)C(C)(C)C)C5C42C(=O)C(C)(C)C)C(C)C` (stereo unspecified), the GI50 in test [1] was > 100 µM (inactive); in test [2], 66.2 µM (inactive); in test [3] it was > 100 µM (inactive); in [4] it was > 100 µM (inactive); in [5], > 100 µM (inactive); in test [6], > 100 µM (inactive). Besides, the GI50 in test [7], in test [8], in [9], in [11], in test [13] and in test [14] was > 100 µM (inactive) throughout. For the same compound, the GI50 in test [15], in test [17], in test [18] and in test [19] was > 100 µM (inactive) each time.
Consider `N#CC(CCN1CCC(Nc2ccccc2)(c2nnnn2C2CCCCC2)CC1)(c1ccccc1)c1ccccc1`, for which the GI50 in test [20], in test [1], in test [3], in test [4], in test [5] and in test [6] was > 100 µM (inactive) throughout. In addition, the GI50 in test [7], in [8], in [9], in test [10], in test [11] and in test [12] was > 100 µM (inactive) in each case. In addition, the GI50 in test [13], in test [14], in test [15], in test [16], in test [17] and in [18] was > 100 µM (inactive) in each case. Further, in test [19], the GI50 was > 100 µM (inactive).
As for `C=C1C2C[C@@H]3O[C@H]4C[C@H]5O[C@@]6(C[C@@H]7O[C@]8(C[C@H](C)[C@@H]9O[C@@H]%10CC(CO)O[C@@H]%10C[C@@H]9O8)C[C@H](C)[C@@H]7O6)C[C@H]5O[C@H]4[C@H](C)[C@H]3OC(=O)C[C@H]3CC[C@@H]4OC5[C@H]6O[C@]7(CC[C@H]8CC(=C)[C@H](CC[C@@H](C[C@H]1C)O2)O8)CC6O[C@@H]5[C@@H](O7)[C@H]4O3` (stereo partly specified), the GI50 in test [20], in test [1], in [2], in [3], in test [5] and in test [6] was < 0.0001 µM (active) throughout. Also, the GI50 in [7] was 0.000502 µM (active); in test [8], < 0.0001 µM (active); in [10], < 0.0001 µM (active); in test [11], < 0.0001 µM (active); in [12] it was < 0.0001 µM (active); in [13], < 0.0001 µM (active). Further, the GI50 in test [14], in test [15], in test [16], in [17], in [18] and in test [19] was < 0.0001 µM (active) throughout.
Regarding `CCN(CC)CCC(=O)/C=C/c1ccccc1`, the GI50 is 17.7 µM (inactive) in test [1]; 10.4 µM (inactive) in test [2]; 15.7 µM (inactive) in test [3]; 15.2 µM (inactive) in test [4]; 12.8 µM (inactive) in [5]; 14 µM (inactive) in test [6]. Besides, the GI50 was 17.8 µM (inactive) in test [7]; 19 µM (inactive) in test [8]; 19.9 µM (inactive) in [9]; 15.9 µM (inactive) in test [10]; 13.3 µM (inactive) in [11]; 19.4 µM (inactive) in [12]. The GI50 in test [13] was 3.05 µM (inactive); in [14], 9.25 µM (inactive); in test [15], 12 µM (inactive); in [16], 1.97 µM (inactive); in test [17] it was 12.1 µM (inactive); in [18], 18.1 µM (inactive). In [19], the GI50 was 17.5 µM (inactive).
In the case of `CC(NC(=O)CNC(=O)OC(C)(C)C)C(=O)NC(Cc1ccccc1)C(=O)OCc1ccccc1` (stereo not drawn) (Boc-Gly-Ala-Phe-OBn; configuration not given here), the GI50 in test [20] is > 100 µM (inactive); in test [1], > 100 µM (inactive); in [2], > 100 µM (inactive); in test [3], > 100 µM (inactive); in test [4] it was 36.5 µM (inactive); in [5] it was > 100 µM (inactive). The GI50 in test [6] was 11.2 µM (inactive); in test [7] it was > 100 µM (inactive); in test [8], > 100 µM (inactive); in [9], > 100 µM (inactive); in test [10] it was 63.4 µM (inactive); in test [11], > 100 µM (inactive). For the same compound, the GI50 was 75.7 µM (inactive) in test [12]; 40.3 µM (inactive) in test [13]; > 100 µM (inactive) in [14]; > 100 µM (inactive) in test [15]; > 100 µM (inactive) in test [18]; > 100 µM (inactive) in [19].

For the origin of these results see ChEMBL document CHEMBL1201862, “PubChem BioAssay data set” (2004).
